Legend:
[1] = Clearance in Sprague-Dawley rat at 5 mg/kg, iv up to 24 hrs by LC/MS/MS analysis; assay type: ADME, organism-based; conditions: in vivo
[2] = biological target: Mitogen-activated protein kinase 12 (Homo sapiens) (UniProt P53778); experiment: Inhibition of human SAPK3 assessed as remaining activity at 10 uM in presence of [gamma-32P]ATP by […] assay
[3] = biological target: Tyrosine-protein kinase Blk (Homo sapiens) (UniProt P51451); experiment: Inhibition of BLK (unknown origin) assessed as remaining activity at 10 uM preincubated for 15 mins followed by substrate addition for 30 mins in presence of [gamma-32P]ATP by […] assay
Chain of Tyrosine-protein kinase Blk (Homo sapiens) (P51451 2-505 limits assumed): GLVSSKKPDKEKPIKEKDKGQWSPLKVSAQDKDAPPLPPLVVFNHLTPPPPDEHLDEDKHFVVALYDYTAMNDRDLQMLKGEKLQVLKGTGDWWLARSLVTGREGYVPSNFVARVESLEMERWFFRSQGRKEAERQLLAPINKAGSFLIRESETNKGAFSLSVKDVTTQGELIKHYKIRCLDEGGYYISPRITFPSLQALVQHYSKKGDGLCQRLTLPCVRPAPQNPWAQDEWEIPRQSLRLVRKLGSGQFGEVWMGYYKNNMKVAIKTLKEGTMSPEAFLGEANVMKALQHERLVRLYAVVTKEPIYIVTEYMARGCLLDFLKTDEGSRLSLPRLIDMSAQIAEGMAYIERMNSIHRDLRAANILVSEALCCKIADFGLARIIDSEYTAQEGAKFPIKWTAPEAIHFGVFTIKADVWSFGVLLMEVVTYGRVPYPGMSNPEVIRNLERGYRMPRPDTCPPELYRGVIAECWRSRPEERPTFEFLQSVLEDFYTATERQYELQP

[4] = biological target: Tyrosine-protein kinase JAK1 (Homo sapiens) (UniProt P23458); experiment: Inhibition of human JAK1 assessed as remaining activity at 10 uM in presence of [gamma-32P]ATP by […] assay
Chain of Tyrosine-protein kinase JAK1 (Homo sapiens) (P23458 whole entry): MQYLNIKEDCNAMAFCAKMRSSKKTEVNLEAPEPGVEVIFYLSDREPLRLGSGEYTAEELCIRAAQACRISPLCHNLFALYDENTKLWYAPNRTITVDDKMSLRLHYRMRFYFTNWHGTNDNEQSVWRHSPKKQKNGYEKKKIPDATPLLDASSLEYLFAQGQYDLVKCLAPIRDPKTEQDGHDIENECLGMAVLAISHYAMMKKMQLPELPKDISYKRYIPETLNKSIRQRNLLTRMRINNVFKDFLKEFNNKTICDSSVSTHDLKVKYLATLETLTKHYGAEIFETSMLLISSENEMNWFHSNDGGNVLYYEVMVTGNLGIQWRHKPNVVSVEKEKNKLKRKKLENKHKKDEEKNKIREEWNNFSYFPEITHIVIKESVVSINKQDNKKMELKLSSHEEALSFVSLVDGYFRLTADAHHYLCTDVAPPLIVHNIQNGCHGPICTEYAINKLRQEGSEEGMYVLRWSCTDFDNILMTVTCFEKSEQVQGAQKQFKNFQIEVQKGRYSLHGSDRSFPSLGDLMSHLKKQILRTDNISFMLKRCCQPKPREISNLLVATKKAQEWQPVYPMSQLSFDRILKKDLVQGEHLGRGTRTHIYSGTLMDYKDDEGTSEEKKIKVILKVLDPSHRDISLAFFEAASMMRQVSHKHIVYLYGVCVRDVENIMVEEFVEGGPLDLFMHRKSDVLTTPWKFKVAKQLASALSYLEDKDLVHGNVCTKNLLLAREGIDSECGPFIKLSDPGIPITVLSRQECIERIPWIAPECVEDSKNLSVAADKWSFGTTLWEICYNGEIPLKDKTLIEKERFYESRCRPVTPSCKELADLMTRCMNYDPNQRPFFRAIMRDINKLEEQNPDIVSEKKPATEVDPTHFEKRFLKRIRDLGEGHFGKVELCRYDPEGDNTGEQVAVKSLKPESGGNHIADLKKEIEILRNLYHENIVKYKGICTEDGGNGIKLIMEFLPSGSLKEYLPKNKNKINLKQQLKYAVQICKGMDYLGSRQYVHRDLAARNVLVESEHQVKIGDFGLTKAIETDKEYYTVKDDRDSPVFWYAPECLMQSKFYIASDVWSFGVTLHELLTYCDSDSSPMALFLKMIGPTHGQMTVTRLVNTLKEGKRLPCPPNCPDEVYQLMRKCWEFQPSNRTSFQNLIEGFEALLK

Chain of Mitogen-activated protein kinase 12 (Homo sapiens) (P53778 whole entry): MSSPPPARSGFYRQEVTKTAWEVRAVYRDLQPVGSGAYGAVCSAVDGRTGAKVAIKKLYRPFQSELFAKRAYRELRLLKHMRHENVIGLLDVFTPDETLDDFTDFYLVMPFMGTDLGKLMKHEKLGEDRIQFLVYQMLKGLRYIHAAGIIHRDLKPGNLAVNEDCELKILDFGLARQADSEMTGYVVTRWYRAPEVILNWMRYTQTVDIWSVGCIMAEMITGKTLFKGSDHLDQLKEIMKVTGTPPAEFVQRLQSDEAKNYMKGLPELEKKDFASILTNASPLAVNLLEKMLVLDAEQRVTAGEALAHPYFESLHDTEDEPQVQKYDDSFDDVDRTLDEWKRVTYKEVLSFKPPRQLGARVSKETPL

## CNCCOc1ccc(-c2sc3nc(-c4cccs4)nc(NN4C(=O)C=C(C)C4=O)c3c2C)cc1.Cl
[1]
  clearance: 36.6 mL/min/kg
[2]
  Activity: 99%
[3]
  Activity: 35%
[4]
  Activity: 111%
